Where only a bound is given, the exact number is not on record here.

The target in this assay is Histone deacetylase. The experiment in a line: In vitro inhibitory concentration against Histone deacetylase; Control value 0.06 uM. The assay is classed as protein assay, Homo sapiens.

In turn, `O=C(CS)NCCCC(=O)Nc1cnc2ccccc2c1` returned an IC50 of 660 nM. Turning to `O=C(CS)NCCC(=O)Nc1cnc2ccccc2c1`, the IC50 turned out to be 39500 nM. Molecule `O=C(CCCCCCCC(=O)Nc1ccccc1)NCCS` registered a concentration for half-maximal inhibition (IC50) of 10200 nM.

As to `O=C(CCCCCC[N-]CC[S-])Nc1ccccc1.[Zn+2]`, the IC50 was more than 100000 nM. `O=C(CCCCC(=O)Nc1ccccc1)NCCS` came in with an IC50 of 1500 nM. `O=C(CCC(=O)Nc1ccccc1)NCCS` came in with an IC50 of 12500 nM. To `O=C(NCCS)C(=O)Nc1ccccc1` belongs 2800 nM; to `O=C(CCCC(=O)Nc1ccccc1)NCCS`, 3100 nM.

Turning to `O=C(CS)NCCCCC(=O)Nc1cnc2ccccc2c1`, the IC50 is 2800 nM. With `O=C(CC(=O)Nc1ccccc1)NCCS`, the IC50 worked out at 70000 nM.

With `O=C(CCCCCC(=O)Nc1ccccc1)NCCS`, the IC50 is 2500 nM. In the case of `O=C(CCCCCCC(=O)Nc1ccccc1)NCCS`, the half-inhibitory concentration (IC50) is 2350 nM. As to `O=C(CS)NCCCCCC(=O)Nc1cnc2ccccc2c1`, the IC50 turned out to be 1100 nM.

The values are drawn from ChEMBL document CHEMBL1143516, “Mercaptoamide-based non-hydroxamic acid type histone deacetylase inhibitors” (Bioorg Med Chem Lett, 2005).
